Experimental data reported in patent US11759480B2, “Compositions and methods for CAR T cell therapy” (ENDOCYTE, INC., priority 2017, dated 2023).

How the values were obtained:
[1] = system: anti-fluorescein scFv on CAR T cells; experiment: Competitive binding assay against FITC-Alexa647 on CAR T cells; details: 1 μM competing ligand versus FITC-Alexa647 10 nM
Method: To examine the ability of bridge molecules to bind anti-fluorescein scFv on CAR T cells, a competitive binding assay was developed. Measurement of the fluorescein signal from CAR T cell bound bridges could not be used due to the overlap of its fluorescence with that of the GFP expressing CAR T cells. For this purpose, FITC-Alexa647 (10 nM) was allowed to bind anti-fluorescein CAR T cells in the absence or presence of excess (1 μM) competing ligand (i.e. FITC-folate, FITC-DUPA, FITC-CA9) for 1 h at room temperature. After incubation, anti-fluorescein CAR T cells were washed 3× with PBS to remove unbounded FITC-Alexa647, and the washed cells were analyzed for Alexa647 fluorescence by flow cytometry.
Fluorescein-folate (FITC-folate) and fluorescein-PSMA (FITC-DUPA) were synthesized as previously described. To examine the ability of these bridge molecules to bind anti-fluorescein scFv on CAR T cells, a competitive binding assay had to be developed, because measurement of the fluorescein signal from CAR T cell bound bridge could not be used due to the overlap of its fluorescence with that of the GFP expressing CAR T cells. For this purpose, FITC-Alexa647 (10 nM) was allowed to bind anti-fluorescein CAR T cells in the absence or presence of excess (1 μM) competing ligand (i.e. FITC-folate) for 1 h at room temperature. After incubation, anti-fluorescein CAR T cells were washed 3× with PBS to remove unbounded FITC-Alexa647, and the washed cells were analyzed for Alexa647 fluorescence by flow cytometry. For analysis of FITC-folate to binding to folate receptor, FR positive KB cells were incubated with FITC-folate (100 nM) in the absence or presence of excess (10 μM) free folate (i.e. as a competitive ligand). After washing samples with PBS (3 times), samples were analyzed by flow cytometry for fluorescein-folate binding.

[2] = system: PSMA+ MDA-MB-231 and CA9+ MDA-MB-231; experiment: Two tumors treated with cocktail of bridge molecules in vivo (Example 42); set-up: species or system NSG mice; details: only one of the bridges infused
Description: In order to evaluate whether a cocktail of bridge molecules can eliminate two tumors expressing orthogonal antigens, we established two different tumor models. As a first tumor model, each of PSMA+ MDA-MB-231 and CA9+ MDA-MB-231 were implanted into NSG mice at two different locations (i.e. right flank: CA9+ MDA-MB-231, left flank: PSMA+ MDA-MB-231). For the second tumor model, PSMA+ MDA-MB-231 and CA9+ MDA-MB-231 were pre-mixed at a 1:1 ratio and implanted at one location.
PSMA+ MDA-MB-231 and CA9+ MDA-MB-231 were implanted into NSG mice (Jackson Laboratory, ME) either at two different locations (i.e. right flank: PSMA+ MDA-MB-231, left flank: CA9+ MDA-MB-231) or one location after two tumor cells were pre-mixed (i.e. 50% of PSMA+ MDA-MB-231 and 50% of CA9+ MDA-MB-231). When tumors reached ˜100 mm3 in size, anti-fluorescein CAR T cells (8×10^6) were injected plus FITC-DUPA, FITC-CA9 or both. Tumors were measured every other day with calipers, and tumor volume was calculated according to the equation: Tumor volume=½(L×W2) where L is the longest axis of the tumor and W is the axis perpendicular to L. Results are shown in FIGS. 49A and 49B.

Compound | binding to CAR-expressing T cells [1] | growth of tumor expressing unmatched antigen [2]
FITC-PEG2-CA9 [FITC-CA9] | able to bind to the CAR-expressing T cells | continuously grew
O=C(O)CC[C@H](NC(=O)N[C@@H](CCC(=O)NCCCCCCCC(=O)N[C@@H](Cc1ccccc1)C(=O)N[C@@H](Cc1ccccc1)C(=O)NCCNC(=S)Nc1ccc(-c2c3ccc(=O)cc-3oc3cc(O)ccc23)c(C(=O)O)c1)C(=O)O)C(=O)O [FITC-DUPA] | able to bind to the CAR-expressing T cells | continuously grew
